Patent US20240158394A1, “NEK7 INHIBITORS” (Halia Therapeutics, Inc., priority 2022, published 2024)

Legend:
IL-1β release = experiment: IL-1β Release Assay; type: cell-based; details: Homo sapiens; PMA-treated THP-1 cells, 250 ng/mL LPS then 20 μM nigericin; cleaved IL-1β in media
Method: Approximately 1.5 million THP-1 cells were plated in each well of a 6-well TC plate and incubated with 40 nM PMA in RPMI (10% FBS, 1% Penstrep) for 24 hours. The media was then removed, and cells were rested in RPMI (10% FBS, 1% Penstrep) for 24 hours after which time the media was removed and cells were pre-treated for 2 hours with various concentrations of compounds of interest (typically serial 3-fold dilution in RPMI+5% FBS, concentrations ranging from 1 μM to 0.5 nM) in RPMI (5% FBS). The media was again removed, and cells were incubated with 250 ng/mL LPS and compounds of interest (concentrations as above) in RMPI (5% FBS) for 2 hours. The media was removed for a last time and cells were incubated with 20 μM nigericin and compounds of interest (concentrations as above) in Opti-MEM for 30 minutes. Cell media was then collected and the amount of cleaved IL-1β was determined using a JESS instrument (Protein Simple) and standard protocols. Cleaved Il-1β antibody was obtained from Cell Signaling (catalogue #83186S) and was used at 1:20 dilution in antibody diluent 2. Protein Simple 1× anti-Rabbit HRP secondary antibody was used along with Protein Simple luminol and peroxide for chemiluminescent detection. Primary antibody incubation time was increased from 30 minutes to 60 minutes.

[1] = target: full-length recombinant human NEK7 (Homo sapiens (Human), UniProt Q8TDX7); experiment: NEK7 Enzymatic Assay; type: biochemical; details: casein substrate, [33P]-ATP, 2 hours at room temperature
Method in brief: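 GST-tagged full-length human NEK7 (Sf9-expressed) with 1 mg/mL casein in HEPES pH 7.5/MgCl2 buffer, 1% DMSO; compounds 10 μM–0.5 nM preincubated 20 min at RT. Reaction started with [^33P]-ATP, 2 h at RT, P81 filter radioactivity read; IC50 from % activity remaining versus vehicle.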

full-length recombinant human NEK7, sequence (Q8TDX7 whole entry): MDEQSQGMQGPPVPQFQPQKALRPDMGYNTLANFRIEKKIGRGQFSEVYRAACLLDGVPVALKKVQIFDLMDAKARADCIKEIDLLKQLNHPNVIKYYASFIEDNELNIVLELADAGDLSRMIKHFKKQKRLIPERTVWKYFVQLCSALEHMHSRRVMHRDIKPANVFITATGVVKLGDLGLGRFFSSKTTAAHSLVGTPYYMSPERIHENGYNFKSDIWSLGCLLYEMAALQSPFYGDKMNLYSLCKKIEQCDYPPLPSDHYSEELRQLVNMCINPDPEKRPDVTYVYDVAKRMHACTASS

Row | IC50 (IL-1β release) [nM] | IC50 [1] [nM] | Compound
1 | 100 to 250 | < 200 | Nc1ncnc2c1c(-c1ccc(NC(=O)Nc3cc(C4(C(F)(F)F)CC4)on3)c3cnccc13)cn2C1CC1 [Example I-8, 1-(5-(4-amino-7-cyclopropyl-7H-pyrrolo[2,3-d]pyrimidin-5-yl)isoquinolin-8-yl)-3-(5-(1-(trifluoromethyl)cyclopropyl)-isoxazol-3-yl)urea]
2 | > 1000 | < 200 | Nc1ncnc2c1c(-c1ccc(NC(=O)Nc3cc(C4(C(F)(F)F)CC4)on3)c3nccn13)cn2C1CC1 [Example I-32, 1-(5-(4-amino-7-cyclopropyl-7H-pyrrolo[2,3-d]pyrimidin-5-yl)imidazo[1,2-a]pyridin-8-yl)-3-(5-(1-(trifluoromethyl)-cyclopropyl)isoxazol-3-yl)-urea]
3 | < 100 | < 200 | Nc1ncnc2c1c(-c1ccc(NC(=O)Nc3cc(C4(C(F)(F)F)CC4)no3)c3nccn13)cn2C1CC1 [Example I-22, 1-(5-(4-amino-7-cyclopropyl-7H-pyrrolo[2,3-d]pyrimidin-5-yl)imidazo[1,2-a]pyridin-8-yl)-3-(3-(1-(trifluoromethyl)-cyclopropyl)isoxazol-5-yl)-urea]
4 | < 100 | < 200 | CC(C)(C)c1cc(NC(=O)Nc2ccc(-c3cn(C4CC4)c4ncnc(N)c34)n3ccnc23)on1 [Example I-17, 1-(5-(4-amino-7-cyclopropyl-7H-pyrrolo[2,3-d]pyrimidin-5-yl)imidazo[1,2-a]pyridin-8-yl)-3-(3-(tert-butyl)isoxazol-5-yl)urea]
5 | > 1000 | > 2000 | Nc1ncnc2c1c(-c1ccc(NC(=O)Nc3cc(C4(C(F)(F)F)CC4)on3)c3ncccc13)cn2C1CC1 [Example I-4, 1-(5-(4-amino-7-cyclopropyl-7H-pyrrolo[2,3-d]pyrimidin-5-yl)quinolin-8-yl)-3-(5-(1-(trifluoromethyl)cyclopropyl)-isoxazol-3-yl)urea]
6 |  | < 200 | CC(C)(c1cc(NC(=O)Nc2ccc(-c3cn(C4CC4)c4ncnc(N)c34)n3ccnc23)on1)C(F)(F)F [Example I-21, 1-(5-(4-amino-7-cyclopropyl-7H-pyrrolo[2,3-d]pyrimidin-5-yl)imidazo[1,2-a]pyridin-8-yl)-3-(3-(1,1,1-trifluoro-2-methylpropan-2-yl)isoxazol-5-yl)urea]

The remaining lines, values behind:

Row | Compound | IC50 (IL-1β release) [nM] | IC50 [1] [nM]
7 | CN1CCN(Cc2ccc(NC(=O)Nc3ccc(-c4cn(C5CC5)c5ncnc(N)c45)c4ncoc34)cc2C(F)(F)F)CC1 [Example I-72, 1-(4-(4-amino-7-cyclopropyl-7H-pyrrolo[2,3-d]pyrimidin-5-yl)benzo[d]oxazol-7-yl)-3-(4-((4-methylpiperazin-1-yl)-methyl)-3-(trifluoromethyl)-phenyl)urea] | > 1000 | 500 to 2000
8 | CN1CCN(Cc2ccc(NC(=O)Nc3ccc(-c4cn(C5CC5)c5ncnc(N)c45)n4ccnc34)cc2C(F)(F)F)CC1 [Example I-34, 1-(5-(4-amino-7-cyclopropyl-7H-pyrrolo[2,3-d]pyrimidin-5-yl)imidazo[1,2-a]pyridin-8-yl)-3-(4-((4-methylpiperazin-1-yl)methyl)-3-(trifluorometh-yl)phenyl)urea] | < 100 | < 200
9 | CN1CCN(Cc2ccc(NC(=O)Nc3ccc(-c4cn(C5CC5)c5ncnc(N)c45)c4ccncc34)cc2C(F)(F)F)CC1 [Example I-9, 1-(5-(4-amino-7-cyclopropyl-7H-pyrrolo[2,3-d]pyrimidin-5-yl)isoquinolin-8-yl)-3-(4-((4-methylpiperazin-1-yl)-methyl)-3-(trifluoromethyl)-phenyl)urea] | < 100 | < 200
10 | CC(C)(C)c1cc(NC(=O)Nc2ccc(-c3cn(C4CC4)c4ncnc(N)c34)n3ccnc23)n(-c2ccccc2)n1 [Example I-11, 1-(5-(4-amino-7-cyclopropyl-7H-pyrrolo[2,3-d]pyrimidin-5-yl)imidazo[1,2-a]pyridin-8-yl)-3-(3-(tert-butyl)-1-phenyl-1H-pyrazol-5-yl)urea] | < 100 | < 200
11 | CC(C)(C)c1cc(NC(=O)Nc2ccc(-c3cn(C4CC4)c4ncnc(N)c34)c3ccoc23)on1 [Example I-63, 1-(4-(4-amino-7-cyclopropyl-7H-pyrrolo[2,3-d]pyrimidin-5-yl)benzofuran-7-yl)-3-(3-(tert-butyl)isoxazol-5-yl)urea] | 250 to 1000 | 500 to 2000
12 | Nc1ncnc2c1c(-c1ccc(NC(=O)Nc3cc(C4(C(F)(F)F)CC4)on3)c3oncc13)cn2C1CC1 [Example I-68, 1-(4-(4-amino-7-cyclopropyl-7H-pyrrolo[2,3-d]pyrimidin-5-yl)benzo[d]isoxazol-7-yl)-3-(5-(1-(trifluoromethyl)cyclo-propyl)isoxazol-3-yl)urea] | 100 to 250 | < 200
13 | CN1CCN(Cc2ccc(NC(=O)Nc3ccc(-c4cn(C5CC5)c5ncnc(N)c45)c4c3OCC4)cc2C(F)(F)F)CC1 [Example I-53, 1-(4-(4-amino-7-cyclopropyl-7H-pyrrolo[2,3-d]pyrimidin-5-yl)-2,3-dihydrobenzofuran-7-yl)-3-(4-((4-methylpiperazin-1-yl)methyl)-3-(trifluorometh-yl)phenyl)urea] | < 100 | < 200
14 | CN1CCC(Oc2ccc(NC(=O)Nc3ccc(-c4cn(C5CC5)c5ncnc(N)c45)c4nonc34)cc2C(F)(F)F)CC1 [Example I-79, 1-(7-(4-amino-7-cyclopropyl-7H-pyrrolo[2,3-d]pyrimidin-5-yl)benzo[c][1,2,5]oxadiazol-4-yl)-3-(4-((1-methylpiperidin-4-yl)oxy)-3-(trifluoromethyl)-phenyl)urea] | < 100 | < 200
15 | CN1CCN(Cc2ccc(NC(=O)Nc3ccc(-c4cn(C5CC5)c5ncnc(N)c45)c4cnoc34)cc2C(F)(F)F)CC1 [Example I-69, 1-(4-(4-amino-7-cyclopropyl-7H-pyrrolo[2,3-d]pyrimidin-5-yl)benzo[d]isoxazol-7-yl)-3-(4-((4-methylpiperazin-1-yl)methyl)-3-(trifluorometh-yl)phenyl)urea] | > 1000 | < 200
16 | Nc1ncnc2c1c(-c1ccc(NC(=O)Nc3cc(C4(C(F)(F)F)CC4)on3)c3c1CCO3)cn2C1CC1 [Example I-52, 1-(4-(4-amino-7-cyclopropyl-7H-pyrrolo[2,3-d]pyrimidin-5-yl)-2,3-dihydrobenzofuran-7-yl)-3-(5-(1-(trifluorometh-yl)cyclopropyl)isoxazol-3-yl)urea] | 250 to 1000 | 200 to 500
17 | CN1CCN(Cc2ccc(NC(=O)Nc3ccc(-c4cn(C5CCNCC5)c5ncnc(N)c45)n4ccnc34)cc2C(F)(F)F)CC1 [Example I-133, 1-(5-(4-amino-7-(piperidin-4-yl)-7H-pyrrolo[2,3-d]pyr-imidin-5-yl)imidazo[1,2-a]-pyridin-8-yl)-3-(4-((4-methyl-piperazin-1-yl)methyl)-3-(trifluoromethyl)phenyl)urea] |  | < 200
18 | CN1CCN(Cc2ccc(NC(=O)Nc3ccc(-c4cn(CCO)c5ncnc(N)c45)n4ccnc34)cc2C(F)(F)F)CC1 [Example I-130, 1-(5-(4-amino-7-(2-hydroxy-ethyl)-7H-pyrrolo[2,3-d]pyr-imidin-5-yl)imidazo[1,2-a]-pyridin-8-yl)-3-(4-((4-meth-ylpiperazin-1-yl)methyl)-3-(trifluoromethyl)phenyl)urea] |  | < 200
